Patent publication US10765114B2, “4-amino-6-(pyridyl and 2-substitutedphenyl)-picolinates and 6-amino-2-(pyridyl and 2-substitutedphenyl)-pyrimidine-4-carboxylates and their use as herbicides” (Dow AgroSciences LLC, priority 2013, dated 2020)
Where two headings read alike, the source gives them in different places.

What was measured:
[1] = test system: Key Grass and Sedge Weeds as well as Grass Crops; test: Post-Emergent Test II (Table 6); type: in vivo; settings: post-emergence, 336 h, 14 days after application; for pest or weed control at 70 g/ha: 70 g ai/ha; for pest or weed control at 140 g/ha: 140 g ai/ha
How it was run: (§1)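 Growth stage at treatment: first or second true leaf. Application: compound in acetone/DMSO diluted into an adjuvant-containing aqueous mix, sprayed at 187 L/ha at several rates. Assessment: visual 0-100% injury at 14 days against untreated plants.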

[2] = test system: Key Broadleaf Weed and Crop Species; test: Post-Emergent Test II (Table 5); type: in vivo; settings: post-emergence, 336 h; for pest or weed control at 70 g/ha: application rate 70 (kg ai/ha; footnote: g ai/ha); for pest or weed control at 140 g/ha: application rate 140 (kg ai/ha; footnote: g ai/ha)
How it was run: as §1

[3] = CYPSS, read-out: Visual Growth Reduction (%) 14 Days After Application CYPSS
[4] = DIGSA: crabgrass (Digitaria sanguinalis), read-out: Visual Growth Reduction (%) 14 Days After Application DIGSA
[5] = ECHSS, read-out: Visual Growth Reduction (%) 14 Days After Application ECHSS
[6] = ORYSS (crop), read-out: Visual Growth Reduction (%) 14 Days After Application ORYSS
[7] = SETFA: giant foxtail (Setaria faberi), read-out: Visual Growth Reduction (%) 14 Days After Application SETFA
[8] = SORVU: grain sorghum (Sorghum vulgare), read-out: Visual Growth Reduction (%) 14 Days After Application SORVU
[9] = TRZSS (crop), read-out: Visual Growth Reduction (%) 14 Days After Application TRZSS
[10] = ZEAMX: maize, corn (Zea mays), read-out: Visual Growth Reduction (%) 14 Days After Application ZEAMX
[11] = Abutilon theophrasti, ABUTH: velvetleaf (Abutilon theophrasti), read-out: Visual Growth Reduction (%) 14 Days After Application ABUTH
[12] = Amaranthus retroflexus, AMARE: redroot pigweed (Amaranthus retroflexus), read-out: Visual Growth Reduction (%) 14 Days After Application AMARE
[13] = Brassica napus, BRSSS: oilseed rape, canola (Brassica napus), read-out: Visual Growth Reduction (%) 14 Days After Application BRSSS
[14] = Chenopodium album, CHEAL: lambsquarters (Chenopodium album), read-out: Visual Growth Reduction (%) 14 Days After Application CHEAL
[15] = Euphorbia heterophylla, EPHHL: wild poinsettia (Euphorbia heterophylla), read-out: Visual Growth Reduction (%) 14 Days After Application EPHHL
[16] = Helianthus annuus, HELAN: sunflower (Helianthus annuus), read-out: Visual Growth Reduction (%) 14 Days After Application HELAN
[17] = Viola tricolor, VIOTR: wild pansy (Viola tricolor), read-out: Visual Growth Reduction (%) 14 Days After Application VIOTR

COc1c(-c2cc(N)c(Cl)c(C(=O)O)n2)ccc(Cl)c1F [Compound 84, 4-amino-3-chloro-6-(4-chloro-3-fluoro-2-methoxyphenyl)picolinic acid]
pest or weed control at 70 g/ha [1, 3]: 0 to 29% | pest or weed control at 140 g/ha [1, 3]: 0 to 29% | pest or weed control at 70 g/ha [1, 4]: 0 to 29% | pest or weed control at 140 g/ha [1, 4]: 0 to 29% | pest or weed control at 70 g/ha [1, 5]: 0 to 29% | pest or weed control at 140 g/ha [1, 5]: 0 to 29% | pest or weed control at 70 g/ha [1, 6]: 0 to 29% | pest or weed control at 140 g/ha [1, 6]: 0 to 29% | pest or weed control at 70 g/ha [1, 7]: 0 to 29% | pest or weed control at 140 g/ha [1, 7]: 0 to 29% | pest or weed control at 70 g/ha [1, 8]: 0 to 29% | pest or weed control at 140 g/ha [1, 8]: 0 to 29% | pest or weed control at 70 g/ha [1, 9]: 0 to 29% | pest or weed control at 140 g/ha [1, 9]: 0 to 29% | pest or weed control at 70 g/ha [1, 10]: 0 to 29% | pest or weed control at 140 g/ha [1, 10]: 0 to 29% | pest or weed control at 70 g/ha [2, 11]: 95 to 100% | pest or weed control at 140 g/ha [2, 11]: 95 to 100% | pest or weed control at 70 g/ha [2, 12]: 95 to 100% | pest or weed control at 140 g/ha [2, 12]: 95 to 100% | pest or weed control at 70 g/ha [2, 13]: 95 to 100% | pest or weed control at 140 g/ha [2, 13]: 95 to 100% | pest or weed control at 70 g/ha [2, 14]: 95 to 100% | pest or weed control at 140 g/ha [2, 14]: 95 to 100% | pest or weed control at 70 g/ha [2, 15]: 0 to 29% | pest or weed control at 140 g/ha [2, 15]: 0 to 29% | pest or weed control at 70 g/ha [2, 16]: 85 to 94% | pest or weed control at 140 g/ha [2, 16]: 85 to 94% | pest or weed control at 70 g/ha [2, 17]: 95 to 100% | pest or weed control at 140 g/ha [2, 17]: 95 to 100%
